Reference: EP3513780A1, “METHOD FOR SUPPORTING EPIDERMAL STEM CELL SELF-RENEWAL” (DSM IP Assets B.V., priority 2018, dated 2019)

Columns and labels:
KLK7 = experiment: Gene expression (qPCR) in NHEK: KLK7; type: cell-based, human; details: 24 hours, 0.1 mM (Vitamin B12 0.03 mM), normalized to HPRT1, n.s. = not statistically significant
Method: (§1) Vitamin B2, 0.1 mM • 2. D-panthenol, 0.1 mM • 3. Pyridoxine HCl, 0.1 mM • 4. Vitamin B12, 0.03mM • 5. Niacinamide, 0.1 mM • 6. Folic Acid, 0.1 mM
(§2) All Test Materials were diluted in DermaLife K medium.
(§3) Fresh media replacements were performed every other day.
(§4) OpenArray format. […] Each gene was assayed in duplicate.
(§5) See the Endogenous Control Selection section for more details. Unpaired t-tests were carried out using StatMiner software.

SPINK5 = experiment: Gene expression (qPCR) in NHEK: SPINK5; type: cell-based, human; details: 24 hours, 0.1 mM (Vitamin B12 0.03 mM), normalized to HPRT1, n.s. = not statistically significant
Method: as §1, §2, §3, §4, §5

hsa-miR-203 = experiment: microRNA expression (qPCR) in NHEK: hsa-miR-203; details: for Changes in microRNA Expression of hsa-miR-203 (linear fold-change): 24 hours, 0.1 mM (Vitamin B12 0.03 mM), vs Control group, normalized to RNU44, N=4, negative = decrease
Method: (§6) The study was conducted to understand how different vitamin B supplements influence microRNA and mRNA gene expression in keratinocytes. MicroRNAs are small, non-coding RNA molecules that function as negative regulators of gene expression. […] The current study was performed using normal human epidermal keratinocytes [NHEK].
as §2
(§7) An initial cytotoxicity screening was performed to evaluate a range of Test Material concentrations prior to the microRNA analysis. […] Pyridoxine HCl, 0.1 mM • 4. Vitamin B12, 0.03mM • 5. Niacinamide, 0.1 mM • 6.
(§8) Unpaired t-tests (p<0.05, N=4) were performed to compare each Test Material group to the Control group. […] An endogenous control microRNAs (RNU44) was used for normalization.
as §1, §3
(§9) The preamplification reaction was run for 12 cycles.
(§10) qPCR Processing: qPCR reactions were run using validated Taqman® MicroRNA assays in a Custom OpenArray format. […] Each microRNA was assayed in duplicate.
(§11) Unpaired t-tests were carried out using StatMiner software.

LCE3D = experiment: Gene expression (qPCR) in NHEK: LCE3D; type: cell-based, human; details: 24 hours, 0.1 mM (Vitamin B12 0.03 mM), normalized to HPRT1, n.s. = not statistically significant
Method: as §1, §2, §3, §4, §5

TP63 = experiment: Gene expression (qPCR) in NHEK: TP63; details: for Linear Fold-Change Value, Each Group vs the Untreated Control: TP63: 24 hours, 0.1 mM (Vitamin B12 0.03 mM), normalized to HPRT1, n.s. = not statistically significant
Method: Cell Culture, Cytotoxicity Screening: NHEK [purchased from Lifeline Cell Technologies] were cultured and maintained at 37°C with 5% CO2 using DermaLife K medium according to the manufacturer's recommendations. Two days prior to treatment, NHEK were seeded at a density of -20,000 cells per cm^2 in 24-well plates. Cultures were approximately 75% confluent at the time of treatment.
Stock solutions and final working concentrations of each Test Material were prepared: The following treatment groups were included in the study (N=4): • 1. Vitamin B2, 0.1 mM • 2. D-panthenol, 0.1 mM • 3. Pyridoxine HCl, 0.1 mM • 4. Vitamin B12, 0.03mM • 5. Niacinamide, 0.1 mM • 6. Folic Acid, 0.1 mM
All Test Materials were diluted in DermaLife K medium. NHEK cultured in DermaLife K medium without added supplements served as the Control group.
Treatment and Maintenance of Cultures: Maintenance medium (DermaLife K) was removed from each culture well and replaced with 500 µL (for 24-well cytotoxicity screening) or 2.0 mL (for 6-well gene expression screening) prewarmed Test Medium. Following application of Test Media, the cultures were returned to the incubator at 37°C with 5 % CO2 for 24 hours.
Treatment and Collection of Cell Culture for Gene Expression: Cultures were seeded at a concentration of 20,000 cells/cm^2 in a 6-well plate and incubated for three days at 37°C with 5 % CO2. Fresh media replacements were performed every other day. On the day of treatment, maintenance medium was replaced with test medium. Following a 24 hour exposure, test medium was removed and cell lysis was performed through the addition of 700uL Qiazol lysis buffer (Qiagen) to each well. Cell lysates were immediately collected and stored at -80°C.
RNA Isolation: Total RNA was isolated from frozen cell lysates using a Qiagen miRNeasy Mini kit following the manufacturer's instructions for cultured cells. Total RNA concentration and purity were determined using a Nanodrop 2000 spectrophotometer.
OpenArray format. OpenArrays were run in a Life Technologies QuantStudio 12K Flex instrument. Each gene was assayed in duplicate.
Data Analysis: qPCR data was imported into RealTime StatMiner software v4.2 for statistical analysis using the relative quantitation (RQ) method. […] Unpaired t-tests were carried out using StatMiner software. Statistically significant changes in gene expression (p<0.05) are reported. Linear fold-change data for each subject was calculated using Microsoft Excel.For RQ values >1.0: Linear fold-change value = RQ value For RQ values < 1.0:Linear ford−change value = −1/RQ value [formula]
Statistical Data Analysis Using Statminer Software: qPCR data is typically expressed in log scale and then converted to a linear fold change value. A log10RQ value of 1.0 is equivalent to a 10-fold change in gene expression. A log10RQ value of 0.3 is equivalent to a 2-fold change in gene expression. The log10RQ values have been converted to linear fold change values to simplify data interpretation.

CALML5 = experiment: Gene expression (qPCR) in NHEK: CALML5; type: cell-based, human; details: 24 hours, 0.1 mM (Vitamin B12 0.03 mM), normalized to HPRT1, n.s. = not statistically significant
Method: as §1, §2, §3, §4, §5

KRT1 = experiment: Gene expression (qPCR) in NHEK: KRT1; type: cell-based, human; details: 24 hours, 0.1 mM (Vitamin B12 0.03 mM), normalized to HPRT1, n.s. = not statistically significant
Method: as §1, §2, §3, §4, §5

hsa-miR-720 = experiment: microRNA expression (qPCR) in NHEK: hsa-miR-720; details: 24 hours, 0.1 mM (Vitamin B12 0.03 mM), vs Control group, normalized to RNU44, N=4, negative = decrease
Method: as §6, §2, §7, §8, §1, §3, §9, §10, §11

KRT10 = experiment: Gene expression (qPCR) in NHEK: KRT10; type: cell-based, human; details: 24 hours, 0.1 mM (Vitamin B12 0.03 mM), normalized to HPRT1, n.s. = not statistically significant
Method: as §1, §2, §3, §4, §5

Compound | Linear Fold-Change Value, Each Group vs the Untreated Control: KLK7 (KLK7) | Linear Fold-Change Value, Each Group vs the Untreated Control: SPINK5 (SPINK5) | Changes in microRNA Expression of hsa-miR-203 (linear fold-change) (hsa-miR-203) [fold] | Linear Fold-Change Value, Each Group vs the Untreated Control: LCE3D (LCE3D) | Linear Fold-Change Value, Each Group vs the Untreated Control: TP63 (TP63) [fold] | Linear Fold-Change Value, Each Group vs the Untreated Control: CALML5 (CALML5) [fold] | Linear Fold-Change Value, Each Group vs the Untreated Control: KRT1 (KRT1) [fold] | Changes in microRNA Expression of hsa-miR-720 (linear fold-change) (hsa-miR-720) [fold] | Linear Fold-Change Value, Each Group vs the Untreated Control: KRT10 (KRT10) | fold induction at 100 µM (hsa-miR-203; Homo sapiens, 24 h, read-out: Changes in microRNA Expression of hsa-miR-203 (linear fold-change)) | fold induction at 100 µM (TP63; Homo sapiens, 24 h, read-out: Linear Fold-Change Value, Each Group vs the Untreated Control: TP63)
Cc1ncc(CO)c(CO)c1O.Cl [Pyridoxine HCl] | -1.44 fold | -2.05 fold | -1.78 | n.s. | 1.55 | -1.90 | -4.56 | -1.84 | -2.45 fold | – | –
NC(=O)c1cccnc1 [Niacinamide, nicotinamide] | n.s. | n.s. | – | – | – | – | – | – | n.s. | 1.03 | 1.21
Nc1nc2ncc(CNc3ccc(C(=O)N[C@@H](CCC(=O)O)C(=O)O)cc3)nc2c(=O)[nH]1 [Folic acid] | -1.41 fold | -1.79 fold | -1.46 | -1.72 fold | 1.43 | -1.67 | -3.27 | -1.64 | -1.73 fold | – | –
CC(C)(CO)[C@@H](O)C(=O)NCCCO [D-Panthenol, (+)-(R)-2,4-Dihydroxy-N-(3-hydroxypropyl)-3,3-dimethylbutyramid] | -1.60 fold | -2.00 fold | -1.76 | -1.99 fold | 1.54 | -1.87 | -4.68 | -2.21 | -2.26 fold | – | –
Cc1cc2nc3c(=O)[nH]c(=O)nc-3n(C[C@H](O)[C@H](O)[C@H](O)CO)c2cc1C [Vitamin B2, riboflavin] | -2.03 fold | n.s. | -1.96 | 1.60 fold | 1.34 | -1.24 | -4.00 | -1.93 | -2.50 fold | – | –
cobalamin [Vitamin B12] | n.s. | -1.63 fold | -1.46 | -1.65 fold | – | -1.73 | -2.42 | -2.10 | n.s. | – | –
